Experiments:
[1] = test system: autophagy cells (mouse B16-F10 cells suspended for 4 hours); assay: Blocking of liposomes targeting to autophagy cells (flow cytometry); format: cell-based; details: M6PR+P-selectin, M6PR+PSGL-1 groups
Method: (§1) The mouse B16-F10 cells were suspended for 4 hours to induce autophagy and apoptosis. The autophagy and apoptosis cell were labeled with green fluorescent dyes (GFDs), using Cyto-ID autophagy detection kit (Enzo Life Sciences) (see FIG. 1 and FIG. 3) and CaspGLOW™ Red Active Caspase-3 Staining Kit (BioVision) (see FIG. 2 and FIG. 4) kits, respectively. The autophagy and apoptosis cell containing populations were engaged with various protein conjugated liposomes, which were labeled with fluorescent dye calcein-red (CR). The percentage of B16-F10-liposome engaged populations (GFD and CR double positive populations) were determined using flow cytometry. The levels of liposomes and fluorescent beads engaged with none conjugated cells (the “unconjugated” groups) were normalized to 100% (see FIG. 1 and FIG. 2).
(§2) The mouse B16-F10 cells were suspended for 4 hours and then treated with blocking antibody or soluble M6PR recombinant protein plus additional M6PR+P-selectin-conjugated liposomes. The autophagy and apoptosis cell were labeled with green fluorescent dyes (GFDs), using Cyto-ID autophagy detection kit (Enzo Life Sciences) and CaspGLOW™ Red Active Caspase-3 Staining Kit (BioVision) kits, respectively. […] The percentage of B16-F10-liposome engaged populations (GFD and CR double positive populations) were determined using flow cytometry. […]

[2] = test system: apoptotic cells (mouse B16-F10 cells suspended for 4 hours); assay: Blocking of liposomes targeting to apoptotic cells (flow cytometry); format: cell-based; details: M6PR+P-selectin, M6PR+PSGL-1 groups
Method: as §1, §2

## sialyl-lewis x oligosaccharide
[1]
  antidote: blocking of P-selectin, E-selectin and PSGL-1-conjugated liposomes targeting to autophagy cells: able to serve as the antidotes
[2]
  antidote: blocking of P-selectin, E-selectin and PSGL-1-conjugated liposomes targeting to apoptotic cells: able to serve as the antidotes
